The target in data set [1] is Urokinase-type plasminogen activator (Homo sapiens, UniProt P00749). Nature of the data set: Inhibition of uPA.
Data set [2] addresses Tissue-type plasminogen activator (Homo sapiens, UniProt P00750). Nature of the data set: Inhibition of tPA.
The target of a further data set is Plasminogen (Homo sapiens, UniProt P00747). Nature of the data set: Inhibition of plasmin.
A short description of data set [3]: Cmax in rat. The settings on record: in vivo. The class given is ADME, organism-based.
A short description of data set [4]: Half life in rat. The settings on record: in vivo. The class given is ADME, organism-based.
Data set [5] can be described thus: Clearance in rat. The class given is ADME, organism-based. The settings on record: in vivo.
The nature of data set [6]: Oral bioavailability in rat. The format is ADME, organism-based. The settings on record: in vivo.
The nature of data set [7]: Volume of distribution in rat. The settings on record: in vivo. The class given is ADME, organism-based.

Chain of Plasminogen (P00747 97-580 limits assumed): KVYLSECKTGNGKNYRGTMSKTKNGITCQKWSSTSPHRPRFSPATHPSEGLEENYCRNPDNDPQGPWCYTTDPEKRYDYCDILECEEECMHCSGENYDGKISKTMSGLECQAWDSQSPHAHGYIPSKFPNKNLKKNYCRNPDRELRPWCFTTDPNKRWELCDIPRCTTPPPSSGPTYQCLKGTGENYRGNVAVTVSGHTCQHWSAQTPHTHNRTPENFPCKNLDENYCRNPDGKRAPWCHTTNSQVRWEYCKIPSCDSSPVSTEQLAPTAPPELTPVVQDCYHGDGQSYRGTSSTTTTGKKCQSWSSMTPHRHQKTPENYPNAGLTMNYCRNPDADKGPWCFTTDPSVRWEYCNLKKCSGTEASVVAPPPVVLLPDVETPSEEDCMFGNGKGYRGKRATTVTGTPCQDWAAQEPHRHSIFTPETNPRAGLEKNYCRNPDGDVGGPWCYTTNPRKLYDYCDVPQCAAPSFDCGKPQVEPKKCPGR
Chain of Plasminogen (P00747 581-810 limits assumed): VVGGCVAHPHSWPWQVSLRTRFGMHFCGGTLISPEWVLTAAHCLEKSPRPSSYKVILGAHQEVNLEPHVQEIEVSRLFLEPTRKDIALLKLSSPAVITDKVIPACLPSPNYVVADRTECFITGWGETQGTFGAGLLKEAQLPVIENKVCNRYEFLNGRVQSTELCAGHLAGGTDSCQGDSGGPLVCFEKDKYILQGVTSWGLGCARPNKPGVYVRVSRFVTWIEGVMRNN
Chain of Tissue-type plasminogen activator (P00750 whole entry): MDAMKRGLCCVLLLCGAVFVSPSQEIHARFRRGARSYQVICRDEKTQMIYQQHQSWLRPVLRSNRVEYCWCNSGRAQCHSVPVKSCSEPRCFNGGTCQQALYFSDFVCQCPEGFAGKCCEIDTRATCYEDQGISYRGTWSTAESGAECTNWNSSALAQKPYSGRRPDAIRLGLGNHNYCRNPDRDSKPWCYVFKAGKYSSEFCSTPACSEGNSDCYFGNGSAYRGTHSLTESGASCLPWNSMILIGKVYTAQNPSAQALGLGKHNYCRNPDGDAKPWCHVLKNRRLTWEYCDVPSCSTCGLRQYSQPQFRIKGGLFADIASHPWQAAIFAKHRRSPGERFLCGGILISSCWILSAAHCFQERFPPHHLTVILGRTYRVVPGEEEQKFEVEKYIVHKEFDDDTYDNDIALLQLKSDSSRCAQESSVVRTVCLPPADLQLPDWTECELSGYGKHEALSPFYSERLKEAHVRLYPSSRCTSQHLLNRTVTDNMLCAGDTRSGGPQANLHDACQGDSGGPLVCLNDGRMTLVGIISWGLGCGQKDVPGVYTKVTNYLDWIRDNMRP

Turning to `Cc1ccc(-n2cnnn2)c(Oc2nc(Oc3cccc(-c4cccc(CN)c4)c3)c(F)cc2F)c1`, half-maximal inhibition in data set [1] (IC50) was put at 13 µM. This counts as double-digit micromolar.

Consider `CN(C)c1ccc(C(=O)O)c(Oc2nc(Oc3cccc(-c4cccc(CN)c4)c3)c(F)c(N3CCNCC3)c2F)c1`, for which the half-inhibitory concentration (IC50) in data set [1] was determined as 0.065 µM; in data set [2] it was 11 µM; against Plasminogen, 4.4 µM.

In the case of `NCc1cccc(-c2cccc(Oc3nc(Oc4ccccc4C(=O)O)c(F)cc3F)c2)c1`, the IC50 is 0.84 µM in data set [1], greater than 30 µM in data set [2] and 21 µM on Plasminogen.

In the case of `Cc1ccc(C(=O)O)c(Oc2nc(Oc3cc(-c4cccc(CN)c4)ccc3N)c(F)cc2F)c1`, the 50% inhibitory concentration (IC50) is 0.089 µM in data set [1], 15 µM in data set [2] and 11 µM on Plasminogen.

Regarding `COc1ccc(C(=O)O)c(Oc2nc(Oc3cccc(-c4cccc(CN)c4)c3)c(F)cc2F)c1`, the concentration for half-maximal inhibition (IC50) in data set [1] is 0.22 µM; in data set [2], greater than 30 µM; at Plasminogen, 9.4 µM.

Consider `Cc1ccc(C(=O)O)c(Oc2nc(Oc3cc(O)cc(-c4cccc(CN)c4)c3)c(F)cc2F)c1`, for which the values for the IC50 (in data set [1]; in data set [2]; at Plasminogen) were 0.023 µM, 14 µM and 5.5 µM, respectively.

In data set [1], `NCc1cccc(-c2cccc(Oc3nc(Oc4cc([N+](=O)[O-])ccc4C(=O)O)c(F)cc3F)c2)c1` came in with a half-maximal inhibitory concentration (IC50) of 1.3 µM. In other words, the single-digit micromolar range.

Consider `CN(C)Cc1cccc(-c2cccc(Oc3nc(Oc4cc(N(C)C)ccc4C(=O)O)c(F)cc3F)c2)c1`, for which the IC50 in data set [1] is greater than 30 µM.

For the compound `NCc1cccc(-c2cccc(Oc3nc(Oc4ccccc4CCC(=O)O)c(F)cc3F)c2)c1`, the IC50 in data set [1] was greater than 30 µM.

Take `Cc1ccc(C(=O)O)c(Oc2nc(Oc3cc(N)cc(-c4cccc(CN)c4)c3)c(F)c(N3CCC(N(C)C)C3)c2F)c1` (stereo unspecified): the figures for the IC50 (in data set [1]; in data set [2]; at Plasminogen) were 0.015 µM, 8.5 µM and 3 µM, respectively.

Take `CNc1c(F)c(Oc2cccc(-c3cccc(CN)c3)c2)nc(Oc2cc(N(C)C)ccc2C(=O)O)c1F`: the concentration for half-maximal inhibition (IC50) was 0.13 µM in data set [1], 16 µM in data set [2] and 3.6 µM on Plasminogen.

In data set [1], `CN(C)c1ccc(C(=O)O)c(Oc2nc(Oc3cccc(-c4ccc(CN)cc4)c3)c(F)cc2F)c1` came in with an IC50 greater than 30 µM.

Take `NCc1cccc(-c2cccc(Oc3nc(Oc4ccc(C(=O)O)cc4)c(F)cc3F)c2)c1`: the IC50 in data set [1] was greater than 30 µM.

Consider `Cc1ccc(C(=O)O)c(Oc2nc(Oc3cc(CN)cc(-c4cccc(CN)c4)c3)c(F)cc2F)c1`, for which the IC50 (in data set [1]; against Plasminogen) was 2.7 µM in each case.

Consider `Cc1ccc(C(=O)O)c(Oc2nc(Oc3cc(N)cc(-c4cccc(CN)c4)c3)c(F)cc2F)c1`, for which the IC50 is 0.039 µM in data set [1], greater than 30 µM in data set [2] and 5 µM at Plasminogen. Also, in data set [3], the Cmax is 59 ng/mL. For the same compound, the half-life in data set [4] is 15.6 min. In data set [5], this compound returned a clearance of 257 mL/min/kg. In data set [6], the bioavailability turned out to be 18%. The Vd in data set [7] was 4.6 L/kg.

In turn, `NCc1cccc(-c2cccc(Oc3nc(Oc4cccc(C(=O)O)c4)c(F)cc3F)c2)c1` came in with an IC50 in data set [1] of 20 µM. That is a double-digit micromolar value.

Take `CN(C)c1ccc(C(=O)O)c(Oc2nc(Oc3cccc(-c4cccc(CN)c4)c3)c(F)c(N(C)C)c2F)c1`: the concentration for half-maximal inhibition (IC50) is 0.53 µM in data set [1], greater than 30 µM in data set [2] and 2.9 µM at Plasminogen.

In the case of `Cc1ccc(Oc2nc(Oc3cccc(-c4cccc(CN)c4)c3)c(F)cc2F)c(C(=O)O)c1`, in data set [1], the IC50 came to 3.5 µM.

Regarding `NCc1cccc(-c2cccc(Oc3nc(Oc4ccccc4CC(=O)O)c(F)cc3F)c2)c1`, half-maximal inhibition in data set [1] (IC50) was put at 8.1 µM.

Consider `Cc1c(F)c(Oc2cccc(-c3cccc(C(=N)N)c3)c2)nc(Oc2cc(N(C)C)ccc2C(=O)O)c1F`, for which the half-inhibitory concentration (IC50) in data set [1] came to 0.098 µM; in data set [2], 3.9 µM; against Plasminogen, 2.1 µM.

In the case of `CN(C)c1ccc(C(=O)O)c(Oc2nc(Oc3cccc(-c4cccc(CN)c4)c3)c(F)c(N3CCC(N(C)C)C3)c2F)c1` (stereo unspecified), the half-inhibitory concentration (IC50) in data set [2] amounted to 5.2 µM; against Plasminogen it was 1.9 µM. This compound also had a half-life in data set [4] of 276 min. This compound returned a clearance in data set [5] of 5 mL/min/kg. Moreover, the bioavailability in data set [6] was 0%. Besides, the Vd in data set [7] stood at 1 L/kg.

Take `CN(C)CCN(C)c1c(F)c(Oc2cccc(-c3cccc(CN)c3)c2)nc(Oc2cc(N(C)C)ccc2C(=O)O)c1F`: the IC50 in data set [1] was 0.1 µM; in data set [2], 28 µM; against Plasminogen, 6.3 µM.

On to `Cc1ccc(C(=O)O)c(Oc2nc(Oc3cccc(-c4cccc(CN)c4)c3)c(F)cc2F)c1`, for which the IC50 in data set [1] worked out at 0.24 µM; in data set [2] it was 22 µM; at Plasminogen it was 5 µM. The compound further showed a Cmax in data set [3] of 220 ng/mL. This compound also showed a half-life in data set [4] of 30 min. In addition, the clearance in data set [5] turned out to be 54 mL/min/kg. Besides, the bioavailability in data set [6] turned out to be 37%. In data set [7], this compound came in with a Vd of 0.7 L/kg.

`CN(C)c1ccc(C(=O)O)c(Oc2nc(Oc3cccc(-c4cccc(CN)c4)c3)c(F)cc2F)c1`: the IC50 in data set [1] came to 0.1 µM; in data set [2], 18 µM; at Plasminogen, 6.5 µM. The compound also returned a Cmax in data set [3] of 33 ng/mL. The compound also showed a half-life in data set [4] of 30 min. This compound also came in with a clearance in data set [5] of 26 mL/min/kg. This compound had a bioavailability in data set [6] of 9%. Also, in data set [7], the distribution volume (Vd) was found to be 1.15 L/kg.

In turn, `Cc1ccc(C(=O)O)c(Oc2nc(Oc3ccc(N)c(-c4cccc(CN)c4)c3)c(F)cc2F)c1` yielded an IC50 in data set [1] greater than 30 µM.

As for `Cc1cccc(C(=O)O)c1Oc1nc(Oc2cccc(-c3cccc(CN)c3)c2)c(F)cc1F`, the half-maximal inhibitory concentration (IC50) was found to be 0.54 µM in data set [1] and 8.6 µM against Plasminogen.

Regarding `CNCc1cccc(-c2cccc(Oc3nc(Oc4cc(N(C)C)ccc4C(=O)O)c(F)cc3F)c2)c1`, the IC50 in data set [1] was greater than 30 µM.

With `CC(C)c1ccc(C(=O)O)c(Oc2nc(Oc3cccc(-c4cccc(CN)c4)c3)c(F)cc2F)c1`, the IC50 was determined as 0.68 µM in data set [1] and 2.8 µM against Plasminogen.

`Cc1cccc(Oc2nc(Oc3cccc(-c4cccc(CN)c4)c3)c(F)cc2F)c1C(=O)O`: the midpoint of inhibition in data set [1], the IC50, lay at 26 µM.

For `CN(C)c1ccc(C(=O)O)c(Oc2nc(Oc3cccc(-c4cccc(CN)c4)c3)c(F)c(N3CCOCC3)c2F)c1`, the IC50 in data set [1] came out at 0.9 µM; in data set [2], 10 µM; against Plasminogen it was 2.1 µM.

By IC50 is commonly meant the point on the concentration scale where inhibition reaches its midpoint. A high value points to a need for much substance. What is called Cmax is the maximum level reached in the sampled fluid or tissue. In general, half-life refers to how long it takes for the measured level to halve. What is called clearance is the rate of elimination divided by the concentration. Lower therefore signals a low capacity for elimination. In general, bioavailability refers to dose-corrected exposure relative to a reference, in per cent. A high value points to much systemic uptake. As usually defined, the Vd is a proportionality between amount in the body and measured concentration, not a real space.

The values are drawn from ChEMBL document CHEMBL1156011, “Identification of orally bioavailable, non-amidine inhibitors of Urokinase Plasminogen Activator (uPA)” (Bioorg Med Chem Lett, 2009).
